Test results reported in US11696904B2, “Prodrug for therapeutic applications” (The Regents of the University of California, priority 2020, dated 2023).

Key:
[1] = DNAge (epigenetic aging clock) analysis; assay type: in vivo; conditions: healthy BALB/c mice, 32 μmol/kg daily i.p., blood two days post-treatment
Protocol: DNAge® (epigenetic aging clock) analysis. Blood samples (100 μL) were collected in triplicate from healthy female BALB/c mice treated as described above. Upon immediate preservation in DNA/RNA Shield™ (Zymo Research, Irvine, Calif.), genomic DNA was purified using Quick-DNA Plus Kit (Zymo Research) as instructed by the manufacturer. Sample library preparation and data analysis for mouse DNAge® (epigenetics aging clock) were performed by service provider (Zymo Research). Briefly, genomic DNA (200 ng) was bisulfite-converted using EZ DNA Methylation_Lightning™ Kit (Zymo Research). Bisulfite-converted DNA libraries for targeted bisulfite sequencing platform, called SWARM® (Simplified Whole-panel Amplification Reaction Method), were sequenced on a HiSeq 1500 sequencer for >1,000× coverage. Sequence reads were identified using Illumina base calling software (San Diego, Calif.) and aligned to the reference genome using Bismark, an aligner optimized for bisulfite sequence data and methylation calling. The methylation level of each sampled cytosine was estimated as the number of reads reporting a C, divided by the total number of reads reporting a C or T. DNA methylation levels of >500 age-related CpG loci were used for age prediction using Zymo Research's proprietary […] DNAge® algorithms: […]

[2] = tested on: FL5.12/p190-Luc cells; assay: In vivo bioluminescence imaging, BCR-Abl-driven leukemogenesis model; conditions: 32 μmol/kg daily i.p., day 6, Balb/c mice, p<0.01
Protocol: In vivo bioluminescence imaging. In an immunocompetent syngeneic model, 6-7 weeks old Balb/c female mice were intravenously injected with Ph+FL5.12/p190/Luc cells (1.0×10^5 cells per mouse) in the tail vein. After 5 days, the mice received daily i.p. injections of fingolimod, FTY-k-PEG, FTY-PEG (all at a dose of 32 μmol/kg) or PBS for 5 days (n=5). Mice were placed under anesthesia using isoflurane (Patterson Veterinary, Greeley, Colo.) and interperitoneally injected with 120 mg/kg of synthetic firefly luciferin (Promega, Madison, Wis.) in PBS at a concentration of 20 mg/mL immediately prior to bioluminescence imaging with an IVIS Lumina system (Caliper Life Sciences, Hopkinton, Mass.) for 4 min. Mice were under anesthesia for the entire duration of imaging and bioluminescence signal intensities in mice were quantified using Living Image 3.2 software associated with the imaging system.
Preserved anti-leukemic effect of FTY-k-PEG in vivo. To assess the anti-leukemic effects of FTY-k-PEG in vivo while eliminating bradycardia and immunosuppressive activity, a BCR-Abl-driven leukemogenesis model in which fingolimod is effectively was used. […] The leukemic expansion of FL5.12/p190-Luc cells was assessed by i.p. administration of synthetic firefly luciferin (120 mg/kg) and subsequent bioluminescence imaging (see FIG. 12B-D). […]

[3] = tested on: circulating B and T lymphocytes; assay: Lymphocyte sequestration; assay type: in vivo, mice; conditions: 10 mg/kg (32 μmol/kg) i.p., blood 12 h post-injection, compared to saline or FTY-k-PEG
Protocol: Lymphocyte sequestration. Female 8-24 week old C57BL6 mice were intraperitoneally injected with vehicle (0.9% saline or 20% acidified DMSO in 0.9% saline), 10 mg/kg (32 μmol/kg) fingolimod, or 155 mg/kg FTY-k-PEG (32 μmol/kg). After 12 h, blood was collected from the retro-orbital sinus under ketamine/xylazine anesthesia. Whole blood (10 μL) was added to 190 μL of ACK red blood cell lysis buffer, the mixture was incubated at ambient temperature for 3-5 min […], and the white blood cells were recovered by centrifugation. Nucleated cells (Hoechst33342-positive) were counted using a hemocytometer to obtain the white blood cell count. Separately, 50 μL of whole blood was added to 1 mL of ACK red blood cell lysis buffer and incubated for 3-5 min at RT. Cells were washed with 2% fetal calf serum (FCS, Atlanta Biologicals (Flowery Branch, Ga.) in PBS with 0.05% NaN3 (Sigma Aldrich (Milwaukee, Wis.)) and red blood cell lysis was repeated. Tubes were decanted and resuspended in 100 μL of 10% FCS in PBS with 0.05% NaN3 and directly conjugated antibodies against B220, CD4, or CD8 (all from Biolegend, San Diego, Calif.) for 30 min on ice. Cells were analyzed on a BD LSR II flow cytometer; the analysis was restricted to live cells (DAPI-negative).
Avoided bradycardia and lymphopenia in vivo by FTY-k-PEG. […]

[4] = tested on: C57BL/6 mice; assay: Heart rate (ECG telemetry); assay type: in vivo; conditions: single i.p. dose 10 mg/kg, monitored 10 h, conscious mice
Excerpt: Heart rate. Male C57BL/6 mice age 4-6 months were surgically implanted with DSI TA-ETAF20 electrocardiographic telemetry devices (Data Sciences International, St. Paul, Minn.) in the mouse's abdominal cavity with biopotential leads sutured in place in the chest wall. The electrocardiographic data was collected and recorded using the PhysioTel telemetry system and Dataquest A.R.T 4.0 software (Data Sciences International). Mice were permitted two week-long recovery after surgery before initiation of baseline telemetry recordings. Heart rate was calculated from ECG data taken in the freely moving, conscious mice. Mice (n=3) were intraperitoneally treated with a single dose of vehicle (0.9% saline or 20% acidified DMSO in 0.9% saline), 10 mg/kg fingolimod, or 155 mg/kg FTY-k-PEG, and heart rate was continuously monitored for 10 h. Mice were rested for two weeks at which point the experiment was repeated with the mice assigned to the alternate group. […]
Avoided bradycardia and lymphopenia in vivo by FTY-k-PEG. To test whether FTY-k-PEG avoids bradycardia, C57BL/6 mice were surgically implanted with an electrocardiographic telemetry device and heart rate was calculated from ECG data taken in the freely moving, conscious mice after intraperitoneal (i.p.) injection of saline, fingolimod, or acid-cleavable FTY-k-PEG (see FIG. 10A). […]

[5] = Water solubility of FTY prodrugs; assay type: physicochemical; conditions: for water solubility: qualitative
Excerpt: Design and synthesis of FTY-k-PEG. Acetals (ketals) were chosen for their structural versatility, facile synthesis, and tunable cleavability under mildly acidic conditions. The endosomal pH of ˜5.0 is an excellent intracellular trigger for drug release from acid-labile drug conjugates. Initial synthetic methodology utilized 2-methoxypropene to generate methyl ketal-functionalized fingolimod (mkFTY) (see FIG. 2). […] To retain the ketal moiety while increasing solubility of the prodrug, N-Fmoc piperidone was used to generate a cyclic ketal in kFTY (7) (see FIG. 3), eliminating the hydrophobic methyl groups and incorporating a secondary amine as a functional handle for further conjugation. The ketal formation was achieved using azeotropic distillation by which constant removal of water efficiently drives the reaction to completion. […] To further increase water solubility, kFTY was conjugated to succinimidyl carboxyl methyl ester polyethylene glycol (SCM-PEG 5 k) prior to trifluoroacetamide (TFA)-deprotection to produce FTY-k-PEG (8). FTY-k-PEG was analyzed by MALDI-TOF to confirm PEGylation and TFA-deprotection (see FIG. 4). […] Other macromolecules may be used for conjugation, and a plethora of stimuli-responsive linkers may be explored to further enhance the specificity and safety of an FTY prodrug. The acid-cleavable ketal linkage can be replaced by other moieties responsive to intrinsic environmental stimuli (redox, pH, etc.), external stimuli (heat, ultrasound, photo-irradiation, electrochemical, magnetic, etc.), or specific biological processes (enzymatic cleavage, ion chelation, etc.), depending the molecular structure of a drug and the stimuli to be utilized for target indication. In addition, a variety of macromolecules can also be used in lieu of PEG, including polysaccharides (i.e., hyaluronic acids), peptides, and various synthetic polymers for improved water-solubility, extended circulation, avoided premature activation, nanoparticle formulation, theranostic applications, combating resistance, and specific targeting. […]

[6] = tested on: nutrient transporter associated protein 4F2hc; assay: Nutrient transporter expression (surface 4F2hc, flow cytometry); assay type: cell-based, murine; conditions: FL5.12 cells, 3 h treatment, compared to fingolimod
Protocol: Cell culture. Murine IL-3-dependent proB-cell lymphoid FL5.12 cells and FL5.12/BCR-Abl p190 cells were obtained by gift. FL5.12/p190 cells were transduced to express firefly luciferase by lentiviral vectors purchased from Capital Bioscience (Gaithersberg, Md.). FL5.12/p190 and luciferase-expressing FL5.12/p190 cells (FL5.12/p190/Luc cells) were maintained at 250,000-800,000 cells/mL in RPMI 1640 media containing 10% (v/v) FBS and 1% (v/v) streptomycin-penicillin. FL5.12 cells were cultured in the same media supplemented with 5 ng/mL IL3. All cells were cultured at 37° C. with 5% CO2 and 100% humidity.
Nutrient transporter expression. Surface 4F2hc expression was measured using phycoerythrin (PE)-conjugated rat anti-mouse 4F2hc antibody (BD Pharmingen, San Diego, Calif.); analysis by flow cytomery was restricted to viable cells. PE-conjugated mouse IgG1, k (BD Pharmingen) was used as an isotype control. Cells were analyzed on a BD LSR II flow cytometer (BD Biosciences, San Jose, Calif.) and with FlowJo software (Treestar, Ashland, Oreg.).
To confirm active drug was released selectively upon acid-hydrolysis, drugs were incubated in buffers of pH 7.4 and pH 5.0 prior to incubation with the cells (see FIG. 8). Fingolimod was pre-incubated in the same buffers to rule out the possibility that the buffers would affect drug's activity or contribute to cell apoptosis. […]

Row | epigenetic age [1] | reduction of lymphocytes [3] [%] | Compound | average bioluminescence signal lower than that of PBS [2] [%] | reduction of heart rate [4] [%] | concentration up to which readily soluble in water [5] [µM] | water solubility [5] | down-regulation of surface 4F2hc expression [6]
1 | significant increase in epigenetic age | ~60 | CCCCCCCCc1ccc(CCC(N)(CO)CO)cc1 [fingolimod, Fingolimod] | 64 | 50 | – | – | –
2 | – | – | CCCCCCCCc1ccc(CCC2(N)COC3(CCNCC3)OC2)cc1 [kFTY] | – | – | ≤ 10000 | increased water solubility compared to mkFTY | –
3 | – | – | CCCCCCCCc1ccc(CCC2(N)COC(C)(C)OC2)cc1 [mkFTY] | – | – | – | loss of water solubility | nearly identical efficacy to fingolimod
